Reference: patent US20050119316A1, “Semicarbazide derivatives and the use thereof as antithrombotics” (Merch Patent GmbH, priority 2002, published 2005)

Experiments:
FXa = FXa (Homo sapiens, UniProt P00742); test: Inhibition of factor Xa (Table 1, affinity to receptors); type: biochemical
Source text: The inhibition of factor Xa by the compounds according to the invention and the measurement of the anticoagulant and antithrombotic activity can be determined by conventional in-vitro or in-vivo methods. A suitable method is described, for example, by J. Hauptmann et al. in Thrombosis and Haemostasis 1990, 63, 220-223.
The inhibition of factor Xa can be measured, for example, by the method of T. Hara et al. in Thromb. Haemostas. 1994, 71, 314-319.

TF/FVIIa = TF/FVIIa (Homo sapiens, UniProt P08709); test: Inhibition of TF/factor VIIa (Table 1, affinity to receptors); type: biochemical
Sequence of TF/FVIIa (P08709 213-466 limits assumed): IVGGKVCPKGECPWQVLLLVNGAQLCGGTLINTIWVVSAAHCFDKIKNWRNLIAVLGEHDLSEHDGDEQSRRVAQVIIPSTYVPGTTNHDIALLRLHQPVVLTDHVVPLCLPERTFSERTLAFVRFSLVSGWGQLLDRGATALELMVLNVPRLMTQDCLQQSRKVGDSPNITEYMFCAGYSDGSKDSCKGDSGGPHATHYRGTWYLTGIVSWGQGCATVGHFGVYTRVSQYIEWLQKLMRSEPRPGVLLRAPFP
Sequence of TF/FVIIa (P08709 61-212 partner limits assumed): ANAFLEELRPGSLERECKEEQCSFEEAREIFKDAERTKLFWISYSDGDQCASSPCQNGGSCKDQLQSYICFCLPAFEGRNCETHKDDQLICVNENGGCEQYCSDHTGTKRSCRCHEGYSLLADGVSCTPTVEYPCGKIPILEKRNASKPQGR
Sequence of TF/FVIIa (P13726 33-295 partner): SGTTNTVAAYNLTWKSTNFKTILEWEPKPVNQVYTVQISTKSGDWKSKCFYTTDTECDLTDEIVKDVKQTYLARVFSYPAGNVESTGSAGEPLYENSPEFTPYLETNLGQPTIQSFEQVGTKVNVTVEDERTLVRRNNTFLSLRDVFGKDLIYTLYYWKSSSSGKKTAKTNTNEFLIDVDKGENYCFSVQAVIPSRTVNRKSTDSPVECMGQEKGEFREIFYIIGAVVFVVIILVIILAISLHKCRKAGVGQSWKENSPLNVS
Source text: The inhibition of factor VIIa by the compounds according to the invention and the measurement of the anticoagulant and antithrombotic activity can be determined by conventional in-vitro or in-vivo methods. A conventional method for the measurement of the inhibition of factor VIIa is described, for example, by H. F. Ronning et al. in Thrombosis Research 1996, 84, 73-81.

Sequence of FXa (P00742 235-488 limits assumed): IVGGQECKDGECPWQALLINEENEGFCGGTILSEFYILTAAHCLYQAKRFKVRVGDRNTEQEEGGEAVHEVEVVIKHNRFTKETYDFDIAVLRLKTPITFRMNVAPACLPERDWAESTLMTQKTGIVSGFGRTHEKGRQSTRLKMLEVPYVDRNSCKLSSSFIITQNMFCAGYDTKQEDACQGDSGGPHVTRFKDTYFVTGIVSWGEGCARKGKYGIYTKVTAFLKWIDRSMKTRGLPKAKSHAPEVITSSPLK
Sequence of FXa (P00742 41-179 partner limits assumed): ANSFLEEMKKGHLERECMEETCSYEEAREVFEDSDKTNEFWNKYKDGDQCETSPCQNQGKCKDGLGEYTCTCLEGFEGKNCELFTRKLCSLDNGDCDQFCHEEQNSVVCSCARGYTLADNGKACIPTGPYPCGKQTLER

Row | IC50 (FXa) [nM] | IC50 (TF/FVIIa) [µM] | Structure (SMILES)
1 | 3800 | 8.8 | CS(=O)(=O)c1ccccc1-c1ccc(NC(=O)NN(c2ccccc2)c2cccc(C(N)=NO)c2)c(F)c1 [Compound 8, 1-(3-N-hydroxyamidinophenyl)-4-(3-fluoro-2′-methylsulfonylbiphenyl-4-yl)-1-phenylsemicarbazide]
2 | 28 | 0.012 | CS(=O)(=O)c1ccccc1-c1ccc(NC(=O)NN(c2ccccc2)c2cccc(C(=N)N)c2)c(F)c1 [Compound 9, 1-(3-amidinophenyl)-4-(3-fluoro-2′-methylsulfonylbiphenyl-4-yl)-1-phenylsemicarbazide]
3 | 2400 | 4.2 | CS(=O)(=O)c1ccccc1-c1ccc(NC(=O)NN(c2ccccc2)c2cccc(CN)c2)c(F)c1 [Compound 10, 1-(3-aminomethylphenyl)-4-(3-fluoro-2′-methylsulfonylbiphenyl-4-yl)-1-phenylsemicarbazide]
